Source: the supplement of paper PMC11061612

How the values were obtained:
Experiment in all cases: combination Emax (second highest fraction inhibited in the dose matrix, 72 h); higher = more inhibition; extreme values may be limits of the assay
[1] = test system: A704 (Kidney Carcinoma)
Procedure, shortened: (§1)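 Cell lines in DMEM/F12 or RPMI with 10% FBS were plated in 1536-well plates, held 24 hours at 37°C, 5% CO2, then given two-drug dose matrices for 72 hours (DMSO typically 0.2%). Viability was read by CellTiter-Glo 2.0 luminescence and scaled as inhibition from 0 (vehicle wells) to 1 (blank wells). Combination Emax is the second-highest inhibition in the matrix; Bliss excess is observed combination effect minus expected EA + EB − EA·EB, EA and EB being single-agent effects.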

[2] = test system: BV-173 (Chronic Myelogenous Leukemia)
Procedure, shortened: as §1

[3] = test system: EBC-1 (Squamous Cell Lung Carcinoma)
Procedure, shortened: as §1

[4] = test system: EW-13 (Ewing's Sarcoma)
Procedure, shortened: as §1

[5] = test system: EW-3 (Ewing's Sarcoma)
Procedure, shortened: as §1

[6] = test system: GI-1 (Glioblastoma)
Procedure, shortened: as §1

[7] = test system: GOTO (Neuroblastoma)
Procedure, shortened: as §1

[8] = test system: HC-1 (Other Blood Carcinomas)
Procedure, shortened: as §1

[9] = test system: JHH-7 (Hepatocellular Carcinoma)
Procedure, shortened: as §1

[10] = test system: KYSE-150 (Esophageal Squamous Cell Carcinoma)
Procedure, shortened: as §1

[11] = test system: LC4-1 (B-Lymphoblastic Leukemia)
Procedure, shortened: as §1

[12] = test system: MFE-319 (Endometrial Carcinoma)
Procedure, shortened: as §1

[13] = test system: NCI-H322M (Lung Adenocarcinoma)
Procedure, shortened: as §1

[14] = test system: NCI-N87 (Gastric Carcinoma)
Procedure, shortened: as §1

[15] = test system: NH-12 (Neuroblastoma)
Procedure, shortened: as §1

[16] = test system: OVISE (Ovarian Carcinoma)
Procedure, shortened: as §1

[17] = test system: PF-382 (T-Lymphoblastic Leukemia)
Procedure, shortened: as §1

[18] = test system: RPMI-7951 (Melanoma)
Procedure, shortened: as §1

[19] = test system: SCC-9 (Oral Cavity Carcinoma)
Procedure, shortened: as §1

[20] = test system: TGBC11TKB (Gastric Carcinoma)
Procedure, shortened: as §1

SMILES | combination Emax [1] | combination Emax [2] | combination Emax [3] | combination Emax [4] | combination Emax [5] | combination Emax [6] | combination Emax [7] | combination Emax [8] | combination Emax [9] | combination Emax [10] | combination Emax [11] | combination Emax [12] | combination Emax [13] | combination Emax [14] | combination Emax [15] | combination Emax [16] | combination Emax [17] | combination Emax [18] | combination Emax [19] | combination Emax [20]
CN(CCO)CC[C@H](CSc1ccccc1)Nc1ccc(S(=O)(=O)NC(=O)c2ccc(N3CCC([C@@H](O)c4ccccc4-c4ccc(Cl)cc4)CC3)cc2)cc1S(=O)(=O)C(F)(F)F [AZD4320] + CCN(CCO)CCCOc1ccc2c(Nc3cc(CC(=O)Nc4cccc(F)c4)[nH]n3)ncnc2c1 [AZD2811] (first compound max 1 µM, 7x7, partner max 1 µM) | 0.563 | 0.965 | 0.931 | 0.754 | 0.949 | 0.771 | 0.649 | 0.969 | 0.538 | 0.301 | 1 | 0.647 | 0.0611 | 0.571 | 0.962 | 0.828 | 1 | 0.647 | 0.333 | 0.439
Cn1cnc2c(F)c(Nc3ccc(Br)cc3Cl)c(C(=O)NOCCO)cc21 [Selumetinib] + C[C@@H]1COCCN1C2=NC(=NC(=C2)C3(CC3)[S@](=N)(=O)C)C4=C5C=CNC5=NC=C4 [AZD6738] (first compound max 10 µM, 7x7, partner max 10 µM) | 0.391 | 0.947 | 0.934 | 0.623 | 0.822 | 0.781 | 0.946 | 0.793 | 0.311 | 0.622 | 0.91 | 0.752 | 0.88 | 0.632 | 0.91 | 0.54 | 0.912 | 0.873 | 0.463 | 0.854
Cn1cnc2c(F)c(Nc3ccc(Br)cc3Cl)c(C(=O)NOCCO)cc21 [Selumetinib] + C=CCn1c(=O)c2cnc(Nc3ccc(N4CCN(C)CC4)cc3)nc2n1-c1cccc(C(C)(C)O)n1 [AZD1775] (first compound max 10 µM, partner max 1 µM) | 0.488 | 0.925 | 0.923 | 0.0949 | 0.269 | 0.74 | 0.928 | 0.941 | 0.229 | 0.453 | 0.874 | 0.671 | 0.861 | 0.712 | 0.891 | 0.593 | 0.974 | 0.741 | 0.518 | 0.912
Cc1nc(Nc2ncc(C(=O)Nc3c(C)cccc3Cl)s2)cc(N2CCN(CCO)CC2)n1 [Dasatinib] + CC(=O)Nc1cccc(-n2c(=O)n(C3CC3)c(=O)c3c(Nc4ccc(I)cc4F)n(C)c(=O)c(C)c32)c1 [Trametinib] (first compound max 2 µM, 7x7, partner max 1 µM) | 1 | 0.819 | 0.997 | 0 | 0.0371 | 0.368 | 0.398 | 0.494 | 0.306 | 0.743 | 0.244 | 0.368 | 0.721 | 0.764 | 0.644 | 0.828 | 0.991 | 0.87 | 0.856 | 0.492
CN(CCO)CC[C@H](CSc1ccccc1)Nc1ccc(S(=O)(=O)NC(=O)c2ccc(N3CCC([C@@H](O)c4ccccc4-c4ccc(Cl)cc4)CC3)cc2)cc1S(=O)(=O)C(F)(F)F [AZD4320] + C[C@@H]1COCCN1C2=NC(=NC(=C2)C3(CC3)[S@](=N)(=O)C)C4=C5C=CNC5=NC=C4 [AZD6738] (first compound max 1 µM, 7x7, partner max 10 µM) | 0.809 | 0.953 | 0.935 | 0.887 | 0.971 | 0.982 | 0.909 | 0.958 | 0.524 | 0.614 | 1 | 0.928 | 0.915 | 0.845 | 1 | 0.961 | 1 | 0.951 | 0.466 | 0.935
CCN(CCO)CCCOc1ccc2c(Nc3cc(CC(=O)Nc4cccc(F)c4)[nH]n3)ncnc2c1 [AZD2811] + C[C@@H]1COCCN1C2=NC(=NC(=C2)C3(CC3)[S@](=N)(=O)C)C4=C5C=CNC5=NC=C4 [AZD6738] (first compound max 1 µM, 7x7, partner max 10 µM) | 0.43 | 0.994 | 0.32 | 0.638 | 0.724 | 0.922 | 0.893 | 0.789 | 0.275 | 0.533 | 0.97 | 0.668 | 0.852 | 0.744 | 0.858 | 0.663 | 0.916 | 0.856 | 0.336 | 0.791
CC1(C)CCC(CN2CCN(c3ccc(C(=O)NS(=O)(=O)c4ccc(NCC5CCOCC5)c([N+](=O)[O-])c4)c(Oc4cnc5[nH]ccc5c4)c3)CC2)=C(c2ccc(Cl)cc2)C1 [Venetoclax] + C[C@@H](Nc1cc(F)cc(F)c1)c1cc(C(=O)N(C)C)cc2c(=O)cc(N3CCOCC3)oc12 [AZD8186] (first compound max 1 µM, 7x7, partner max 3 µM) | 0.429 | 0.82 | 0.209 | 0.322 | 0.736 | 0.28 | 0.305 | 0.616 | 0.0915 | 0.161 | 1 | 0.0342 | 0.237 | 0.578 | 0.612 | 0.238 | 0.202 | 0.496 | 0.193 | 0.203
NC1(C(=O)N[C@@H](CCO)c2ccc(Cl)cc2)CCN(c2ncnc3[nH]ccc23)CC1 [Capivasertib] + COc1nnc2ccc(N3CCC(c4ccc(OCCN5CCN(C)C(=O)[C@H]5C)cc4)CC3)nn12 [AZD5153] (first compound max 10 µM, 7x7, partner max 1 µM) | 0.645 | 0.905 | 0.829 | 0.636 | 0.837 | 0.915 | 0.802 | 0.664 | 0.311 | 0.796 | 0.99 | 0.962 | 0.615 | 0.772 | 0.634 | 0.526 | 1 | 0.865 | 0.538 | 0.253
CCN(CCO)CCCOc1ccc2c(Nc3cc(CC(=O)Nc4cccc(F)c4)[nH]n3)ncnc2c1 [AZD2811] + O=C(c1cc(Cc2n[nH]c(=O)c3ccccc23)ccc1F)N1CCN(C(=O)C2CC2)CC1 [Olaparib] (first compound max 1 µM, 7x7, partner max 10 µM) | 0.188 | 0.982 | 0.216 | 0.701 | 0.675 | 0.328 | 0.654 | 0.681 | 0.218 | 0.515 | 0.854 | 0.245 | 0.182 | 0.293 | 0.659 | 0.272 | 0.893 | 0.328 | 0.19 | 0.408
CN(C)CCCOc1ccc(-c2ccc3ncc4c(c3c2)n(C2CCOCC2)c(=O)n4C)cn1 [AZD0156] + CCN(CCO)CCCOc1ccc2c(Nc3cc(CC(=O)Nc4cccc(F)c4)[nH]n3)ncnc2c1 [AZD2811] (first compound max 1 µM, 7x7, partner max 1 µM) | 0.156 | 0.975 | 0.171 | 0.332 | 0.34 | 0.411 | 0.649 | 0.379 | 0.143 | 0.422 | 0.808 | 0.147 | 0.123 | 0.253 | 0.674 | 0.113 | 0.823 | 0.257 | 0.186 | 0.325
Cc1c2c(nn1C)CSCc1cc(n(C)n1)CSc1cc(c3ccccc3c1)OCCCc1c(C(=O)O)n(C)c3c-2c(Cl)ccc13 [AZD5991] + C1CN(CCC1(C(=O)N[C@@H](CCO)C2=CC=C(C=C2)Cl)N)C3=NC=NC4=C3C=CN4 [Capivasertib] (first compound max 1 µM, 7x7, partner max 3 µM) | 0.306 | 0.927 | 0.287 | 0.432 | 0.649 | 0.949 | 0.725 | 0.588 | 0.188 | 0.397 | 0.989 | 0.776 | 0.225 | 0.422 | 0.32 | 0.354 | 0.477 | 0.986 | 0.231 | 0.472
